Experimental data reported in patent publication US20260250312A1, “ANTIBACTERIAL COMPOUNDS ELIMINATING DORMANT BACTERIAL CELLS” (UNIVERSITÉ D'AIX-MARSEILLE, priority 2022, published 2026).
pIC50: −log10 of the molar value. Several values for one entry are separate records, joined by “and”; a condition that tells them apart may be missing. Equal values may be shown once. Read-outs that look alike come from different tables or passages of the source.

Columns and labels:
[1] = system: E. coli non-persister cells; assay: Anti-persister activity test, non-persister cells; type: cell-based, Escherichia coli; settings: Escherichia coli; for viability at 250 µM: 4 h, read-out: Non-persister cell survival rate 96 h, concentration used 250 μM, 4 hours treatment
Protocol: (§1) Anti-persister activity test: Escherichia coli (E. coli) persister cells were generated and isolated as described by MARQUES, C. N. H. et al. (Applied and Environmental Microbiology 2014, Vol. 80, No. 22, pp. 6976-6991). E. coli persister cells were compared to E. coli non-persister cells. 1 mL persister or non-persister bacteria culture was added in a 1.5 mL microtube with each of the compounds to be tested or ciprofloxacin as a […], and incubated at 37° C. with 160 rpm shaking for 4 hours. After 4 hours treatment with the compounds, the microtubes were centrifuged at 3,500g for 5 minutes and the pellets were resuspended in 1 mL of fresh drug free RM broth (10 g/L M9 salt, 2% casamino acids, 1 mM MgCl2, 1% glycerol). Resuspended bacteria were then plated over LB agar plates and incubated at 37° C. Bacterial colonies were enumerated after 24, 48 and 96 hours to estimate the survival rate.

[2] = system: Escherichia coli (E. coli) persister cells; assay: Anti-persister activity test, persister cells; type: cell-based; settings: for anti-persister activity (in words): E. coli persister cells, Table 8 conditions; for viability at 250 µM: 4 h, read-out: Persister cell survival rate 96 h, concentration used 250 μM, 4 hours treatment
Protocol: as §1

[3] = system: Pseudomonas aeruginosa (ATCC27853); assay: Microdilution MIC assay (CLSI-based), P. aeruginosa; type: cell-based; settings: Pseudomonas aeruginosa, ATCC27853, 20 h, 20 hours incubation at 35-37° C., MHB; read-out: Minimum inhibitory concentration P. aeruginosa ATCC27853
Summary of the method: (§2)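 Broth microdilution per modified CLSI guidelines in Mueller Hinton broth, 200 μL, inoculum ca. 5×10^5 CFU/mL; compounds tested as salts, twofold dilutions from 0.2 mg/mL, in triplicate. MIC determined from OD at 620 nm after incubation.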

[4] = system: Staphylococcus aureus (ATCC25923); assay: Microdilution MIC assay (CLSI-based), S. aureus; type: cell-based; settings: Staphylococcus aureus, ATCC25923, 20 h, 20 hours incubation at 35-37° C., MHB; read-out: Minimum inhibitory concentration S. aureus ATCC25923
Summary of the method: as §2

[5] = system: Enterococcus faecalis (ATCC29212); assay: Microdilution MIC assay (CLSI-based), E. faecalis; type: cell-based; settings: Enterococcus faecalis, ATCC29212, 20 h, 20 hours incubation at 35-37° C., MHB; read-out: Minimum inhibitory concentration E. faecalis ATCC29212
Summary of the method: as §2

CHO-K1 cells = assay: WST1 cytotoxicity test; type: cell-based, Chinese hamster; settings: for IC50 / pIC50: Cricetulus griseus; for IC50: CHO-K1, 24 h, WST1, 24 hours at 37° C., read-out: IC50 CHO; for pIC50: CHO-K1, WST1, as printed in Table 8, read-out: Toxicity IC50 CHO
Summary of the method: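 CHO-K1 cells pre-cultured 24 h, then exposed 24 h at 37 °C to increasing compound concentrations. Viability read as WST-1 formazan absorbance at 450 nm after 20 min; dose-response fitted by nonlinear regression.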

[6] = system: Escherichia coli (ATCC28922); assay: Microdilution MIC assay (CLSI-based), E. coli; type: cell-based; settings: Escherichia coli, ATCC28922, 20 h, 20 hours incubation at 35-37° C., MHB; read-out: Minimum inhibitory concentration E. coli ATCC28922
Summary of the method: as §2

O=C(O)c1cn(C2CC2)c2cc(N3CCNCC3)c(F)cc2c1=O [Ciprofloxacin, ciprofloxacin, reference compound]
viability at 200 µM ([1]; concentration used 200 μM, 4 hours treatment, read-out: Non-persister cell survival rate 96 h): 0%
viability at 200 µM ([2]; Escherichia coli, concentration used 200 μM, 4 hours treatment, read-out: Persister cell survival rate 96 h): 5.6%

COC(=O)[C@@H](Cc1ccccc1)NC(=O)CC[C@@H](C)[C@H]1CCC2C3C(CC[C@@]21C)[C@@]1(C)CC[C@H](NCCNCCNCCN)C[C@H]1C[C@H]3O (stereo partly drawn) [Compound S010, methyl ((4R)-4-((3S,5S,7R,10S,13R,17R)-3-((2-((2-((2-aminoethyl)amino)ethyl)amino)ethyl)amino)-7-hydroxy-10,13-dimethylhexadecahydro-1H-cyclopenta[a]phenanthren-17-yl)pentanoyl)-D-phenylalaninate]
MIC [3]: 50 µM and 32 µg/mL
viability at 250 µM [1]: 4.2%
MIC [4]: 12.5 µM and 8 µg/mL
MIC [5]: 12.5 µM and 8 µg/mL
toxicity results (in words) (CHO-K1 cells): good toxicity results
IC50 (CHO-K1 cells): 114 µM and 77.4 µg/mL
pIC50 (CHO-K1 cells): 3.94
MIC [6]: 50 µM and 32 µg/mL
anti-persister activity (in words) [2]: very potent anti-persister activity
viability at 250 µM ([2]; Escherichia coli): 0.8%

COC(=O)[C@@H](NC(=O)CC[C@@H](C)[C@H]1CCC2C3C(CC[C@@]21C)[C@@]1(C)CC[C@H](NCCCNCCNCCCN)C[C@H]1C[C@H]3O)C(C)C (stereo partly drawn) [Compound S013, methyl ((4R)-4-((3S,5S,7R,10S,13R,17R)-3-((3-((2-((3-aminopropyl)amino)ethyl)amino)propyl)amino)-7-hydroxy-10,13-dimethylhexadecahydro-1H-cyclopenta[a]phenanthren-17-yl)pentanoyl)-L-valinate]
MIC [3]: 25 µM and 16 µg/mL
viability at 250 µM [1]: 0%
MIC [4]: 6.25 µM and 4 µg/mL
MIC [5]: 12.5 µM and 8 µg/mL
toxicity results (in words) (CHO-K1 cells): good toxicity results
IC50 (CHO-K1 cells): 96.3 µM and 63.7 µg/mL
pIC50 (CHO-K1 cells): 4.02
MIC [6]: 6.25 µM and 4 µg/mL
anti-persister activity (in words) [2]: both anti-persister and anti-bacterial activities
viability at 250 µM ([2]; Escherichia coli): 0%

CC[C@@H](C)[C@H](NC(=O)CC[C@@H](C)[C@H]1CCC2C3C(CC[C@@]21C)[C@@]1(C)CC[C@H](NCCCNCCCN)C[C@H]1C[C@H]3O)C(=O)OC (stereo partly drawn) [Compound S050, methyl (2S,3R)-2-((4R)-4-((3S,5S,7R,10S,13R,17R)-3-((3-((3-aminopropyl)amino)propyl)amino)-7-hydroxy-10,13-dimethylhexadecahydro-1H-cyclopenta[a]phenanthren-17-yl)pentanamido)-3-methylpentanoate]
MIC [3]: 50 µM and 32 µg/mL
MIC [4]: 3.12 µM and 2 µg/mL
MIC [5]: 25 µM and 16 µg/mL
IC50 (CHO-K1 cells): 10.5 µM and 6.63 µg/mL
MIC [6]: 12.5 µM and 8 µg/mL

COC(=O)CNC(=O)CC[C@@H](C)[C@H]1CCC2C3C(C[C@H](O)[C@@]21C)[C@@]1(C)CC[C@H](NCCCNCCCCNCCCN)C[C@H]1C[C@H]3O (stereo partly drawn) [Compound S051, methyl ((4R)-4-((3S,5S,7R,10S,12S,13R,17R)-3-((3-((4-((3-aminopropyl)amino)butyl)amino)propyl)amino)-7,12-dihydroxy-10,13-dimethylhexadecahydro-1H-cyclopenta[a]phenanthren-17-yl)pentanoyl)glycinate]
MIC [3]: 25 µM and 16 µg/mL
MIC [4]: 6.25 µM and 4 µg/mL
MIC [5]: 50 µM and 32 µg/mL
IC50 (CHO-K1 cells): 33.3 µM and 22.1 µg/mL
MIC [6]: 25 µM and 16 µg/mL

COC(=O)[C@H](NC(=O)CC[C@@H](C)[C@H]1CCC2C3CC[C@@H]4C[C@@H](NCCCN5CCN(CCCN)CC5)CC[C@]4(C)C3C[C@H](O)[C@@]21C)C(C)C (stereo partly drawn) [Compound S053, methyl ((4R)-4-((3S,5R,10S,12S,13R,17R)-3-((3-(4-(3-aminopropyl)piperazin-1-yl)propyl)amino)-12-hydroxy-10,13-dimethylhexadecahydro-1H-cyclopenta[a]phenanthren-17-yl)pentanoyl)-D-valinate]
MIC [3]: > 200 µM and > 128 µg/mL
MIC [4]: 12.5 µM and 8 µg/mL
MIC [5]: 200 µM and 128 µg/mL
IC50 (CHO-K1 cells): > 100 µM and > 68 µg/mL
MIC [6]: 100 µM and 64 µg/mL

COC(=O)[C@H](NC(=O)CC[C@@H](C)[C@H]1CCC2C3CC[C@@H]4C[C@@H](NCCCN(CCCN)CCCN)CC[C@]4(C)C3C[C@H](O)[C@@]21C)C(C)C (stereo partly drawn) [Compound S054, methyl ((4R)-4-((3S,5R,10S,12S,13R,17R)-3-((3-(bis(3-aminopropyl)amino)propyl)amino)-12-hydroxy-10,13-dimethylhexadecahydro-1H-cyclopenta[a]phenanthren-17-yl)pentanoyl)-D-valinate]
MIC [3]: 100 µM and 64 µg/mL
MIC [4]: 6.25 µM and 4 µg/mL
MIC [5]: 100 µM and 64 µg/mL
IC50 (CHO-K1 cells): > 100 µM and > 67 µg/mL
MIC [6]: 50 µM and 32 µg/mL

COC(=O)[C@@H](NC(=O)CC[C@@H](C)[C@H]1CCC2C3CC[C@@H]4C[C@@H](NCCCNCCCCNCCCN)CC[C@]4(C)C3CC[C@@]21C)C(C)C (stereo partly drawn) [Compound S057, methyl ((4R)-4-((3S,5R,10S,13R,17R)-3-((3-((4-((3-aminopropyl)amino)butyl)amino)propyl)amino)-10,13-dimethylhexadecahydro-1H-cyclopenta[a]phenanthren-17-yl)pentanoyl)-L-valinate]
MIC [3]: 6.25 µM and 4 µg/mL
MIC [4]: 3.12 µM and 2 µg/mL
MIC [5]: 3.12 µM and 2 µg/mL
IC50 (CHO-K1 cells): 30.2 µM and 20.4 µg/mL
MIC [6]: 3.12 µM and 2 µg/mL

COC(=O)[C@H](NC(=O)CC[C@@H](C)[C@H]1CCC2C3C(C[C@H](O)[C@@]21C)[C@@]1(C)CC[C@H](NCCCNCCCCNCCCN)C[C@H]1C[C@H]3O)C(C)C (stereo partly drawn) [Compound S058, methyl ((4R)-4-((3S,5S,7R,10S,12S,13R,17R)-3-((3-((4-((3-aminopropyl)amino)butyl)amino)propyl)amino)-7,12-dihydroxy-10,13-dimethylhexadecahydro-1H-cyclopenta[a]phenanthren-17-yl)pentanoyl)-D-valinate]
MIC [3]: 50 µM and 32 µg/mL
MIC [4]: 12.5 µM and 8 µg/mL
MIC [5]: 100 µM and 64 µg/mL
IC50 (CHO-K1 cells): 6.55 µM and 4.63 µg/mL
MIC [6]: 100 µM and 64 µg/mL

COC(=O)[C@H](NC(=O)CC[C@@H](C)[C@H]1CCC2C3C(C[C@H](O)[C@@]21C)[C@@]1(C)CC[C@H](NCCCN2CCN(CCCN)CC2)C[C@H]1C[C@H]3O)C(C)C (stereo partly drawn) [Compound S059, methyl ((4R)-4-((3S,5S,7R,10S,12S,13R,17R)-3-((3-(4-(3-aminopropyl)piperazin-1-yl)propyl)amino)-7,12-dihydroxy-10,13-dimethylhexadecahydro-1H-cyclopenta[a]phenanthren-17-yl)pentanoyl)-D-valinate]
MIC [3]: > 200 µM and > 128 µg/mL
MIC [4]: 50 µM and 32 µg/mL
MIC [5]: > 200 µM and > 128 µg/mL
IC50 (CHO-K1 cells): 56.1 µM and 39.5 µg/mL
MIC [6]: 200 µM and 128 µg/mL

COC(=O)[C@@H](Cc1ccc(O)cc1)NC(=O)CC[C@@H](C)[C@H]1CCC2C3C(C[C@H](O)[C@@]21C)[C@@]1(C)CC[C@H](NCCCNCCCCNCCCN)C[C@H]1C[C@H]3O (stereo partly drawn) [Compound S061, methyl ((4R)-4-((3S,5S,7R,10S,12S,13R,17R)-3-((3-((4-((3-aminopropyl)amino)butyl)amino)propyl)amino)-7,12-dihydroxy-10,13-dimethylhexadecahydro-1H-cyclopenta[a]phenanthren-17-yl)pentanoyl)-D-tyrosinate]
MIC [3]: 100 µM and 64 µg/mL
MIC [4]: 6.25 µM and 4 µg/mL
MIC [5]: 100 µM and 64 µg/mL
IC50 (CHO-K1 cells): 6.85 µM and 5.17 µg/mL
MIC [6]: 100 µM and 64 µg/mL
